Source: publication PMC8225628, “Bispecific repurposed medicines targeting the viral and immunological arms of COVID-19” (Scientific Reports, 2021)
“And” between values parts separate entries of the source, which are not always exact repeats. Equal values may be shown once. Read-outs that look alike come from different tables or passages of the source. *1 amine or outer side, *2 acyl side, *3 side chain or, on linkers, in order; H or OH if unused. Where a SMILES comes first, the peptide text is derived from it. Bridges are numbered along the chain shown (N, C = ends). [ ]: non-standard residue; d: D form. The star is where a group is joined. hTyr(3S-OH,4S-OH,3'-OSO3H) = N[C@H](C(=O)O)[C@H](O)[C@@H](O)c1ccc(O)c(OS(=O)(=O)O)c1; Orn(4R-OH,5R-OH) = O=C([C@H](C[C@@H](O)[C@@H](O)N[*:3])N[*:1])[*:2]; Pro(3S-OH,4S-Me) = C[C@H]1CN[C@H](C(=O)O)[C@H]1O; X1 = CCCCCOc1ccc(-c2cc(-c3ccc(C(=O)*)cc3)no2)cc1; Gln(3R-OH) = NC(=O)C[C@@H](O)[C@H](N)C(=O)O; Hyp = O=C(O)[C@@H]1C[C@@H](O)CN1

Target: SARS-CoV-2 M^pro (Severe acute respiratory syndrome coronavirus 2, UniProt P0DTD1)
Assay: biochemical
[1] = ReFRAME hits, >5e-6 = not potent enough to determine an IC50, read-out: M^pro IC50

Row | Compound | IC50 (read-out: M^pro IC50) [µM] | M^pro % inhibition at 10 µM (ReFRAME hits, 10 µM) | IC50 [1] [µM] | other results
1 | O=C(N/N=C/c1ccc([N+](=O)[O-])o1)c1cc([N+](=O)[O-])cc([N+](=O)[O-])c1O [nifursol] | > 5 | – | – | –
2 | [Cl][Hg][Cl] [mercuric chloride] | – | 89% | > 5 | –
3 | O=C1OC2(c3ccccc31)c1cc(I)c(O)c(I)c1Oc1c2cc(I)c(O)c1I [erythrosine] | – | – | – | IC50: 4 µM
4 | O=c1cc(-c2ccc(O)c(-c3c(O)cc(O)c4c(=O)cc(-c5ccc(O)cc5)oc34)c2)oc2cc(O)cc(O)c12 [amentoflavone] | > 5 | – | – | –
5 | teicoplanin [reference compound] | – | 73% and 40% | > 5 | –
6 | CC(=O)[O][Hg][c]1cc(C(C)(C)CC(C)(C)C)ccc1O [acetomeroctol] | > 5 | – | – | M^pro % inhibition at 10 µM: 79%
7 | (-)-epicatechin gallate | – | 46% | > 5 | –
8 | Cc1cc(O)c2c(=O)c3c(O)cc(O)c4c5c(O)cc(O)c6c(=O)c7c(O)cc(C)c8c1c2c(c34)c(c78)c65 [hypericin] | 4 | – | – | inhibition at 10 µM (read-out: M^pro % inhibition at 10 µM, ReFRAME hits, 10 µM): 71%
9 | CN1CCCN=C1/C=C/c1cccs1 [Pyrantel pamoate, reference compound] | – | – | – | IC50: 4 µM
10 | CCCCCOc1ccc(-c2cc(-c3ccc(C(=O)N[C@H]4C[C@@H](O)[C@@H](O)NC(=O)[C@@H]5[C@@H](O)[C@@H](C)CN5C(=O)[C@H]([C@H](O)CC(N)=O)NC(=O)[C@H]([C@H](O)[C@@H](O)c5ccc(O)c(OS(=O)(=O)[O-])c5)NC(=O)[C@@H]5C[C@@H](O)CN5C(=O)[C@H]([C@@H](C)O)NC4=O)cc3)no2)cc1.[Na+] [micafungin Sodium, reference compound] (X1-[Orn(4R-OH,5R-OH)]T[Hyp][hTyr(3S-OH,4S-OH,3'-OSO3H)][Gln(3R-OH)][Pro(3S-OH,4S-Me)]; lactam 1-C) | – | 50% | > 5 | –
11 | Nc1nc(N)nc(Nc2ccc([As]3SC(C(=O)O)C(C(=O)O)S3)cc2)n1 (stereo not drawn) [MELARSONYL] | 1 | – | – | M^pro % inhibition at 10 µM: 99%
12 | CC(C)[C@H](NC(=O)OCc1ccccc1)C(=O)N[C@@H](C)C(=O)N[C@@H](CC(=O)O)C(=O)COC(=O)c1c(Cl)cccc1Cl [Compound 5] | – | – | – | inhibition at 100 µM (at 100 µM): 50%
13 | CN1CCCN=C1/C=C/c1cccc(O)c1 [oxantel (pamoate), reference compound] | – | – | 4 | –
14 | CC(=O)N[C@@H](Cc1ccc(O)cc1)C(=O)N[C@H](C(=O)N[C@@H](C)C(=O)N[C@@H](CC(=O)O)C(=O)COC(=O)c1c(C)cccc1C)C(C)C [Compound 6, Ac-YVAD-AOM, reference compound] | – | – | – | Inhibition of M^pro (in words): did not substantially inhibit
15 | CN1CCCN=C1/C=C/c1cccc(O)c1.O=C(O)c1cc2ccccc2c(Cc2c(O)c(C(=O)O)cc3ccccc23)c1O [oxantel (pamoate), reference compound] | – | 77% | – | –
16 | [(-)-epicatechin] | – | 48% | > 5 | –
